From PubChem BioAssay AID624367 (Broad Institute, 2012)
Calls of active or inactive are those of the source. The rule behind the calls is not given here.

Tests used:
[1] = tested on: Lymphoblastoid cell line (LCL) cytotoxicity, plate reader; test: viability loss in LCL cells – cell-based, plate reader, dry powder, set 2, cytotoxicity control, dose response (AID 624367)
[2] = as above; details: Lymphoblastoid cell line (LCL) cytotoxicity, plate reader; at 35 µM (top of the series)

SMILES	AC35 [1] [µM]	activity change, negative = cytotoxicity [2]
CN(C)c1ccc2c(c1)[C@@H]1C[C@H](CC(=O)NCc3ccc(Oc4ccccc4)cc3)O[C@@H](CO)[C@@H]1O2	30.4	–
O=C(C[C@H]1C[C@@H]2c3cc(NS(=O)(=O)c4ccc(F)cc4)ccc3O[C@@H]2[C@@H](CO)O1)NCc1ccc(Oc2ccccc2)cc1	34.7	–
O=C(C[C@H]1C[C@H]2c3cc(NC(=O)c4ccc5c(c4)OCO5)ccc3O[C@H]2[C@H](CO)O1)NCc1ccc(Oc2ccccc2)cc1	33.8	–
O=C(C[C@@H]1C[C@@H]2c3cc(NS(=O)(=O)c4ccc(F)cc4)ccc3O[C@@H]2[C@@H](CO)O1)NCc1ccc(Oc2ccccc2)cc1	22.2	–
O=C(C[C@@H]1C[C@@H]2c3cc(NC(=O)c4ccc5c(c4)OCO5)ccc3O[C@@H]2[C@@H](CO)O1)NCc1ccc(Oc2ccccc2)cc1	16	–
O=C(Nc1ccc(C(F)(F)F)cc1)Nc1ccc2c(c1)[C@@H]1C[C@H](CC(=O)N3CCc4ccccc4C3)O[C@H](CO)[C@@H]1O2	36.7	–
C[C@@H](NC(=O)C[C@H]1C=C[C@H](NC(=O)Cc2ccccn2)[C@H](CO)O1)c1ccccc1	–	1.04% (inactive)
O=C(C[C@@H]1C[C@@H]2c3cc(NC(=O)c4cccnc4)ccc3O[C@@H]2[C@H](CO)O1)NCC(F)(F)F	–	-0.745% (inactive)
N#C[C@@H]1[C@H](c2ccc(C#Cc3ccccc3F)cc2)[C@@H](CO)N1C(=O)c1cccnc1	–	-5.47% (inactive)
O=C(Cc1ccccn1)NCC[C@H]1CC[C@@H](NC(=O)Nc2ccc(Cl)cc2)[C@H](CO)O1	–	-1.08% (inactive)
CCC(=O)N1Cc2cc(C(=O)Nc3nccs3)nc(-c3cccc(-c4ccccc4OC)c3)c2[C@H]1CCO	–	-2.48% (inactive)
COc1cccc(C#Cc2ccc([C@@H]3[C@@H](C#N)N(C(=O)c4ccccn4)[C@@H]3CO)cc2)c1	–	7.55% (inactive)
O=C(C[C@@H]1CC[C@@H]2[C@H](COC[C@@H](O)CN2Cc2ccc(Oc3ccccc3)cc2)O1)N1CCc2ccccc2C1	–	-13.2% (inactive)
Cc1noc(C)c1S(=O)(=O)Nc1ccc2c(c1)C(=O)N([C@@H](C)CO)C[C@@H](C)[C@@H](CN(C)Cc1ccc(C(F)(F)F)cc1)OCCCC[C@@H](C)O2	–	-5.16% (inactive)
CC(C)c1ccc(NC(=O)C[C@H]2CC[C@H]3[C@@H](COc4ccc(NC(=O)Nc5ccc(F)c(F)c5)cc4C(=O)N3C)O2)cc1	–	-0.979% (inactive)
C[C@@H]1CN([C@H](C)CO)S(=O)(=O)c2ccc(C#C[C@@H](C)O)cc2O[C@H]1CN(C)Cc1ccc(-c2ccccc2)cc1	–	-3.17% (inactive)
COc1ccc(-c2cccc(-c3nc(C(=O)NCC(F)(F)F)cc4c3[C@H](CCO)N([S@@](=O)C(C)(C)C)C4)c2)cc1	–	-13.3% (inactive)
C[C@@H]1CN([C@@H](C)CO)S(=O)(=O)c2ccc(C#C[C@@H](C)O)cc2O[C@H]1CN(C)Cc1ccc(-c2ccccc2)cc1	–	-1.38% (inactive)
COc1ccccc1C#Cc1cnc2c(c1)C(=O)N([C@H](C)CO)C[C@H](C)[C@@H](CN(C)C(=O)c1ccc3c(c1)OCO3)O2	–	8.25% (inactive)
O=C(Cc1ccccn1)NCC[C@@H]1CC[C@H](NC(=O)Nc2ccc(Cl)cc2)[C@H](CO)O1	–	7.74% (inactive)
C[C@@H]1CN([C@@H](C)CO)S(=O)(=O)c2ccc(C#Cc3ccncc3)cc2O[C@H]1CN(C)C(=O)Nc1ccc2c(c1)OCO2	–	-1.7% (inactive)
